In patent publication US20100076015A1, “Aminopyridine Derivatives” (VANTIA LIMITED, priority 2008, published 2010):

Tests used:
Format in all cases: biochemical
plasma kallikrein = plasma kallikrein (Homo sapiens, UniProt P03952); assay: Enzyme selectivity: plasma kallikrein (chromogenic substrate S-2302); details: chromogenic substrate S-2302, 37° C.
Protocol: (§1) Determination of Enzyme Selectivity
(§2) Selected compounds were further screened for inhibitory activity against other trypsin-like serine proteases using the appropriate enzyme and chromogenic substrate (Chromogenix AB). The activity against the following human enzymes was tested (substrate in brackets):—plasma kallikrein (S-2302), thrombin (S-2238), plasmin (S-2390) and trypsin (S-2222). The enzyme was incubated at 37° C. with the chromogenic substrate. Residual enzyme activity (initial rate of reaction) was determined by measuring the change in optical absorbance at 405 nm.

Human KLK1 = target: T1, Human KLK1 (Homo sapiens, UniProt P06870); assay: Determination of the IC50 for KLK1 (fluorogenic substrate H-DVal-Leu-Arg-AFC); details: 37° C.
T1 construct: purchased Callbiochem (Calbiochem)
Procedure, shortened: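 IC50 values reflect residual human KLK1 activity, read as initial rate from optical absorbance change at 410 nm. Incubations ran at 37° C with H-DVal-Leu-Arg-AFC as substrate across a compound concentration series.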

trypsin = assay: Enzyme selectivity: trypsin (chromogenic substrate S-2222); details: human enzyme, chromogenic substrate S-2222, 37° C.
Protocol: as §1, §2

thrombin = thrombin (Homo sapiens, UniProt P00734); assay: Enzyme selectivity: thrombin (chromogenic substrate S-2238); details: chromogenic substrate S-2238, 37° C.
Protocol: as §1, §2

plasmin = plasmin (Homo sapiens, UniProt P00747); assay: Enzyme selectivity: plasmin (chromogenic substrate S-2390); details: chromogenic substrate S-2390, 37° C.
Protocol: as §1, §2

plasmin, sequence (P00747 581-810 limits assumed): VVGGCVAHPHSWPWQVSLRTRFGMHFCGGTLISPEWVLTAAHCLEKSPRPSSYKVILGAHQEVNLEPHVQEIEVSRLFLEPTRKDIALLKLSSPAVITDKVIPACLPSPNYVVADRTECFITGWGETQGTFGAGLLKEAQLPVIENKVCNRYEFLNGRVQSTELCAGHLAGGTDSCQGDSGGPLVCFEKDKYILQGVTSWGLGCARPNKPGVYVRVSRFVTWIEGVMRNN
plasmin, sequence (P00747 97-580 partner limits assumed): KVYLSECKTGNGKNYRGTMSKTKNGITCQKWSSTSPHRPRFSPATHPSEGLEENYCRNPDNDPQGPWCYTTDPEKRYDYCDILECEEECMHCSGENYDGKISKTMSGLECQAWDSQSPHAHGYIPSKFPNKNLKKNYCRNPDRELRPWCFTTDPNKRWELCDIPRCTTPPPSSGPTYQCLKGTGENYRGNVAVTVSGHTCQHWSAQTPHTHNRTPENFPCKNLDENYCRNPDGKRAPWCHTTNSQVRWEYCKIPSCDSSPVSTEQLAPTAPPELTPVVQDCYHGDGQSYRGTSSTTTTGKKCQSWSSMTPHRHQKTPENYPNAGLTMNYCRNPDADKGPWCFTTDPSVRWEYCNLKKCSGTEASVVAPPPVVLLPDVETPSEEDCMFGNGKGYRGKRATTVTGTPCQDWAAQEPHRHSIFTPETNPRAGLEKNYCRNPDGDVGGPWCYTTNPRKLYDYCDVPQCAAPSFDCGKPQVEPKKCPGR
plasma kallikrein, sequence (P03952 20-638): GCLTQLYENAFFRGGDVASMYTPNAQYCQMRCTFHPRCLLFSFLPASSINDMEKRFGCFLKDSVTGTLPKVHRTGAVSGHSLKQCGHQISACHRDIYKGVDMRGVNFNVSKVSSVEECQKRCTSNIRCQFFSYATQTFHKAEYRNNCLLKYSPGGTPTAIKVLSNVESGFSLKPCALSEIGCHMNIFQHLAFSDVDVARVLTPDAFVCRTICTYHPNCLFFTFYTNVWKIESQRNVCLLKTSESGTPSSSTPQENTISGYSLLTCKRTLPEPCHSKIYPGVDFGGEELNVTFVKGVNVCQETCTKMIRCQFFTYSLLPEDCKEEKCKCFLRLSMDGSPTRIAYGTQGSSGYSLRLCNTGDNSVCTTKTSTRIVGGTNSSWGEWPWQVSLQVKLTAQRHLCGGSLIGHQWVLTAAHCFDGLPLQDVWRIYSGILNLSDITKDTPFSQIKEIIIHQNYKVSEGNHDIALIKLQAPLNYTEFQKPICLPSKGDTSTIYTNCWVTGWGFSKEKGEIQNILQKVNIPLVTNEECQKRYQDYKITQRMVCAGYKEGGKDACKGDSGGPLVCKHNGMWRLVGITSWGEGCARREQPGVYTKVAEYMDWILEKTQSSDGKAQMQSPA
T1 sequence (P06870 25-262): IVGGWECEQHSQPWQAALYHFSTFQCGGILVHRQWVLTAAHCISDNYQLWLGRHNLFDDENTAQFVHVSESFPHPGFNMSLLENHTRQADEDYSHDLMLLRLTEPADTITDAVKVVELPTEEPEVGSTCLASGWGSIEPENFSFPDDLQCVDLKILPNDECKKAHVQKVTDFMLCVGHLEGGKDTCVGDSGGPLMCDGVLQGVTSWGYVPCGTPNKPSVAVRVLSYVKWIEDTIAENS

SMILES	IC50 (plasma kallikrein)	IC50 (Human KLK1)	IC50 (trypsin)	IC50 (thrombin)	IC50 (plasmin)
CN1CCC[C@@H]1C(=O)N[C@@H](Cc1cccc(C(F)(F)F)c1)C(=O)NCc1ccc(N)nc1 [Example 91, (R)-1-Methyl-pyrrolidine-2-carboxylic acid [(S)-1-[(6-amino-pyridin-3-ylmethyl)-carbamoyl]-2-(3-trifluoromethyl-phenyl)-ethyl]-amide]	> 10 µM	0.0021 µM	> 10 µM	> 10 µM	> 10 µM
CN1CCC[C@@H]1C(=O)N[C@@H](Cc1cccc2ccccc12)C(=O)NCc1ccc(N)nc1 [Example 92, (R)-1-Methyl-pyrrolidine-2-carboxylic acid {(S)-1-[(6-amino-pyridin-3-ylmethyl)-carbamoyl]-2-naphthalen-1-yl-ethyl}-amide]	> 10 µM	0.0036 µM	> 10 µM	> 10 µM	> 10 µM
CCN1CCC[C@@H]1C(=O)N[C@@H](Cc1ccc(F)c(F)c1)C(=O)NCc1ccc(N)nc1 [Example 131, (R)-1-Ethyl-pyrrolidine-2-carboxylic acid [(S)-1-[(6-amino-pyridin-3-ylmethyl)-carbamoyl]-2-(3,4-difluoro-phenyl)-ethyl]-amide]	> 10 µM	0.00054 µM	> 10 µM	> 10 µM	> 10 µM
CN1CCCC[C@@H]1C(=O)N[C@@H](Cc1ccc(F)cc1)C(=O)NCc1ccc(N)nc1 [Example 145, (R)-1-Methyl-piperidine-2-carboxylic acid [(S)-1-[(6-amino-pyridin-3-ylmethyl)-carbamoyl]-2-(4-fluoro-phenyl)-ethyl]-amide]	> 10 µM	0.0105 µM	> 10 µM	> 10 µM	> 10 µM
CC(C)N(CC(=O)N[C@@H](Cc1ccc(F)c(F)c1)C(=O)NCc1ccc(N)nc1)C(C)C [Example 157, (S)—N-(6-Amino-pyridin-3-ylmethyl)-3-(3,4-difluoro-phenyl)-2-(2-diisopropylamino-acetylamino)-propionamide]	> 10 µM	0.123 µM	> 10 µM	> 10 µM	> 10 µM
CCC(C)[C@H](C(=O)N[C@@H](Cc1csc2ccccc12)C(=O)NCc1ccc(N)nc1)N(C)S(C)(=O)=O (stereo partly drawn) [Example 213, (R)-2-(Methanesulfonyl-methyl-amino)-3-methyl-pentanoic acid {(S)-1-[(6-amino-pyridin-3-ylmethyl)-carbamoyl]-2-benzo[b]thiophen-3-yl-ethyl}-amide]	> 10 µM	0.0028 µM	> 10 µM	> 10 µM	> 10 µM
Nc1ccc(CNC(=O)[C@H](CC2CCCC3CCCCC32)NC(=O)c2ccc[nH]2)cn1 (stereo partly drawn) [Example 227, 1H-Pyrrole-2-carboxylic acid [(S)-1-[(6-amino-pyridin-3-ylmethyl)-carbamoyl]-2-(decahydro-naphthalen-1-yl)-ethyl]-amide]	> 10 µM	0.0053 µM	> 10 µM	> 10 µM	> 10 µM
Nc1ccc(CNC(=O)[C@H](Cc2cccc3ccccc23)NC(=O)c2ccc[nH]2)cn1 [Example 228, 1H-Pyrrole-2-carboxylic acid {(S)-1-[(6-amino-pyridin-3-ylmethyl)-carbamoyl]-2-naphthalen-1-yl-ethyl}-amide]	> 10 µM	0.0321 µM	> 10 µM	> 10 µM	> 10 µM
Nc1ccc(CNC(=O)[C@H](Cc2cccc(C(F)(F)F)c2)NC(=O)c2ccc[nH]2)cn1 [Example 229, 1H-Pyrrole-2-carboxylic acid [(S)-1-[(6-amino-pyridin-3-ylmethyl)-carbamoyl]-2-(3-trifluoromethyl-phenyl)-ethyl]-amide]	> 10 µM	0.0034 µM	> 10 µM	> 10 µM	> 10 µM
Cc1cc(C)c(C(=O)N[C@@H](Cc2cccc3ccccc23)C(=O)NCc2ccc(N)nc2)[nH]1 [Example 231, 3,5-Dimethyl-1H-pyrrole-2-carboxylic acid {(S)-1-[(6-amino-pyridin-3-ylmethyl)-carbamoyl]-2-naphthalen-1-yl-ethyl}-amide]	> 10 µM	0.0031 µM	> 10 µM	> 10 µM	> 10 µM

The next lines start with the values.

IC50 (plasma kallikrein)	IC50 (Human KLK1)	IC50 (trypsin)	IC50 (thrombin)	IC50 (plasmin)	SMILES
> 10 µM	0.00056 µM	> 10 µM	> 10 µM	> 10 µM	Nc1ccc(CNC(=O)[C@H](Cc2ccc(Cl)c(Cl)c2)NC(=O)[C@H](N)Cc2ccc(Cl)cc2)cn1 [Example 59, (R)-2-Amino-N-[(S)-1-[(6-amino-pyridin-3-ylmethyl)-carbamoyl]-2-(3,4-dichloro-phenyl)-ethyl]-3-(4-chloro-phenyl)-propionamide]
> 10 µM	0.00071 µM	> 10 µM	> 10 µM	> 10 µM	CN[C@H](Cc1ccccc1)C(=O)N[C@@H](Cc1ccc(Cl)c(Cl)c1)C(=O)NCc1ccc(N)nc1 [Example 60, (R)—N-[(S)-1-[(6-Amino-pyridin-3-ylmethyl)-carbamoyl]-2-(3,4-dichloro-phenyl)-ethyl]-2-methylamino-3-phenyl-propionamide]
> 10 µM	0.0004 µM	> 10 µM	> 10 µM	> 10 µM	CC(C)(C)[C@@H](N)C(=O)N[C@@H](Cc1ccc(Cl)c(Cl)c1)C(=O)NCc1ccc(N)nc1 [Example 61, (R)-2-Amino-N-[(S)-1-[(6-amino-pyridin-3-ylmethyl)-carbamoyl]-2-(3,4-dichloro-phenyl)-ethyl]-3,3-dimethyl-butyramide]
> 10 µM	0.0024 µM	> 10 µM	> 10 µM	> 10 µM	CN[C@H](C)C(=O)N[C@@H](Cc1ccc(Cl)c(Cl)c1)C(=O)NCc1ccc(N)nc1 [Example 62, (R)—N-[(S)-1-[(6-Amino-pyridin-3-ylmethyl)-carbamoyl]-2-(3,4-dichloro-phenyl)-ethyl]-2-methylamino-propionamide]
> 10 µM	0.00086 µM	> 10 µM	> 10 µM	> 10 µM	CN1CCC[C@@H]1C(=O)N[C@@H](Cc1ccc(Cl)c(Cl)c1)C(=O)NCc1ccc(N)nc1 [Example 90, (R)-1-Methyl-pyrrolidine-2-carboxylic acid [(S)-1-[(6-amino-pyridin-3-ylmethyl)-carbamoyl]-2-(3,4-dichloro-phenyl)-ethyl]-amide]
> 10 µM	0.004 µM	> 10 µM	> 10 µM	> 10 µM	CC(C)N(C)[C@@H](C)C(=O)N[C@@H](Cc1ccc(F)c(F)c1)C(=O)NCc1ccc(N)nc1 [Example 176, (S)—N-[(S)-1-[(6-Amino-pyridin-3-ylmethyl)-carbamoyl]-2-(3,4-difluoro-phenyl)-ethyl]-2-(isopropyl-methyl-amino)-propionamide]
> 10 µM	0.0101 µM	> 10 µM	> 10 µM	> 10 µM	Cc1cc[nH]c1C(=O)N[C@@H](Cc1ccc(F)c(F)c1)C(=O)NCc1ccc(N)nc1 [Example 226, 3-Methyl-1H-pyrrole-2-carboxylic acid [(S)-1-[(6-amino-pyridin-3-ylmethyl)-carbamoyl]-2-(3,4-difluoro-phenyl)-ethyl]-amide]
